Measured values reported in patent publication EP0908457B1, “3-(1,2-benzisothiazol- and isoxazol-5-Y1)-2,4(1H,3H)-pyrimidinedione or thione and 3-(1,2-benzisothiazol- and isoxazol-5-y1)-4(3H)-pyrimidinone or thione herbicidal agents” (BASF AKTIENGESELLSCHAFT, priority 1997, dated 1999).

Tests used:
[1] = tested on: Sagittaria pygmaea, L.; assay: Preemergence weed control under flooded paddy conditions, SAGPY (Arrowhead (Pygmaea)); assay type: in vivo; conditions: flooded paddy; note: meaning of each grade not given here
[2] = tested on: Cyperus serotinus, Rottb.; assay: Preemergence weed control under flooded paddy conditions, CYPSE (Flatsedge); assay type: in vivo; note: meaning of each grade not given here
[3] = tested on: Oryza sativa, (L.) Tebonnet; assay: Rice tolerance to post-transplant applications under flooded paddy conditions (Example 187), ORYSAT (Rice, Tebonnet); conditions: for herbicidal effect rating ORYSAT: rated 3-4 weeks after treatment; for herbicidal effect rating, ORYSAT (rice tolerance): rated three to four weeks after treatment; for herbicidal effect rating ORYSAT: meaning of each grade not given here
[4] = tested on: Echinochloa oryzoides (Ard.) Fritsch.; assay: Preemergence weed control under flooded paddy conditions, ECHORC (Watergrass (Calif.)); assay type: in vivo; conditions: flooded paddy; note: meaning of each grade not given here
[5] = tested on: Cyperus iria; assay: Preemergence weed control under flooded paddy conditions, CYPIR (Rice Flatsedge); assay type: in vivo; conditions: flooded paddy; note: meaning of each grade not given here
[6] = tested on: Monochoria vaginalis, Presl.; assay: Preemergence weed control under flooded paddy conditions, MOOVA (Monochoria); assay type: in vivo; conditions: flooded paddy; note: meaning of each grade not given here
[7] = Rate 0.0320 kg/ha, preemergence, rated 3-4 weeks after treatment
[8] = Rate 0.0620 kg/ha, preemergence, rated 3-4 weeks after treatment
[9] = Rate 0.1250 kg/ha, preemergence, rated 3-4 weeks after treatment
[10] = Rate 0.2500 kg/ha, preemergence, rated 3-4 weeks after treatment
[11] = Rate 0.5000 kg/ha, preemergence, rated 3-4 weeks after treatment
[12] = 0.0313 kg/ha, preemergence weeds, rated three to four weeks after treatment
[13] = 0.0625 kg/ha, preemergence weeds, rated three to four weeks after treatment
[14] = 0.1250 kg/ha, preemergence weeds, rated three to four weeks after treatment
[15] = 0.2500 kg/ha, preemergence weeds, rated three to four weeks after treatment

## Cc1ccc(OC(C)(C)C(=O)OCCCl)c(-c2nsc3ccc(-n4c(=O)cc(C(F)(F)F)n(C)c4=O)cc23)c1 [Example 544, Propionic acid, 2-{{2-{5-[3,6-dihydro-3-methyl-2,6-dioxo-4-(trifluoromethyl)-1(2H)-pyrimidinyl]-1,2-benzisothiazol-3-yl}-p-tolyl}oxy}-2-methyl-, 2-chloroethyl ester]
[1]; [7]
  herbicidal effect rating, SAGPY: 7.0
[1]; [8]
  herbicidal effect rating, SAGPY: 4.0
[1]; [9]
  herbicidal effect rating, SAGPY: 8.0
[1]; [10]
  herbicidal effect rating, SAGPY: 9.0
[1]; [11]
  herbicidal effect rating, SAGPY: 9.0
[2]; [7]
  herbicidal effect rating, CYPSE: 9.0
[2]; [9]
  herbicidal effect rating, CYPSE: 7.0
[2]; [10]
  herbicidal effect rating, CYPSE: 9.0
[2]; [11]
  herbicidal effect rating, CYPSE: 4.0
[3]; Rate 0.0320 kg/ha
  herbicidal effect rating ORYSAT: 4.0
[3]; Rate 0.0620 kg/ha
  herbicidal effect rating ORYSAT: 9.0
[3]; Rate 0.1250 kg/ha
  herbicidal effect rating ORYSAT: 9.0
[3]; Rate 0.2500 kg/ha
  herbicidal effect rating ORYSAT: 9.0
[3]; Rate 0.5000 kg/ha
  herbicidal effect rating ORYSAT: 8.0
[4]; [7]
  herbicidal effect rating, ECHORC: 5.4
[4]; [8]
  herbicidal effect rating, ECHORC: 5.6
[4]; [9]
  herbicidal effect rating, ECHORC: 6.4
[4]; [10]
  herbicidal effect rating, ECHORC: 9.0
[4]; [11]
  herbicidal effect rating, ECHORC: 9.0
[5]; [7]
  herbicidal effect rating, CYPIR: 9.0
[5]; [8]
  herbicidal effect rating, CYPIR: 9.0
[5]; [9]
  herbicidal effect rating, CYPIR: 9.0
[5]; [10]
  herbicidal effect rating, CYPIR: 9.0
[5]; [11]
  herbicidal effect rating, CYPIR: 9.0
[6]; [7]
  herbicidal effect rating, MOOVA: 9.0
[6]; [8]
  herbicidal effect rating, MOOVA: 9.0
[6]; [9]
  herbicidal effect rating, MOOVA: 9.0
[6]; [10]
  herbicidal effect rating, MOOVA: 9.0
[6]; [11]
  herbicidal effect rating, MOOVA: 9.0

## Cn1c(C(F)(F)F)cc(=O)n(-c2ccc3snc(NS(C)(=O)=O)c3c2)c1=O [Example 117, N-{5-[3,6-Dihydro-3-methyl-2,6-dioxo-4-(trifluoromethyl)-1(2H)-pyrimidinyl]-1,2-benzisothiazol-3-yl}methanesulfonamide]
[1]; [12]
  herbicidal effect rating, SAGPY: 0.0
[1]; [13]
  herbicidal effect rating, SAGPY: 0.0
[1]; [14]
  herbicidal effect rating, SAGPY: 0.0
[1]; [15]
  herbicidal effect rating, SAGPY: 0.0
[2]; [12]
  herbicidal effect rating, CYPSE: 0.0
[2]; [13]
  herbicidal effect rating, CYPSE: 0.0
[2]; [14]
  herbicidal effect rating, CYPSE: 0.0
[2]; [15]
  herbicidal effect rating, CYPSE: 0.0
[3]; 0.0313 kg/ha
  herbicidal effect rating, ORYSAT (rice tolerance): 0.0
[3]; 0.0625 kg/ha
  herbicidal effect rating, ORYSAT (rice tolerance): 0.0
[3]; 0.1250 kg/ha
  herbicidal effect rating, ORYSAT (rice tolerance): 0.0
[3]; 0.2500 kg/ha
  herbicidal effect rating, ORYSAT (rice tolerance): 0.0
[4]; [12]
  herbicidal effect rating, ECHORC: 0.0
[4]; [13]
  herbicidal effect rating, ECHORC: 0.0
[4]; [14]
  herbicidal effect rating, ECHORC: 0.0
[4]; [15]
  herbicidal effect rating, ECHORC: 0.0
[5]; [12]
  herbicidal effect rating, CYPIR: 0.0
[5]; [13]
  herbicidal effect rating, CYPIR: 0.0
[5]; [14]
  herbicidal effect rating, CYPIR: 0.0
[5]; [15]
  herbicidal effect rating, CYPIR: 0.0
[6]; [12]
  herbicidal effect rating, MOOVA: 0.0
[6]; [13]
  herbicidal effect rating, MOOVA: 0.0
[6]; [14]
  herbicidal effect rating, MOOVA: 2.0
[6]; [15]
  herbicidal effect rating, MOOVA: 4.0
